Laboratory results from US9656990B2, “Cathepsin cysteine protease inhibitors” (Merck Sharp & Dohme Corp., priority 2014, dated 2017).

What follows are compounds tested against human cathepsin K (UniProt P43236, Y175D/V274L, species not given) (assay: Cathepsin K Assay). Conditions: IP from dose response curve; Z-Leu-Arg-AMC substrate, pH 5.5; read-out: hrbCat K (IP (nM)).
Type: biochemical
Work on `CC(C)[C@@H](C#N)NC(=O)[C@@H]1C[C@@H](F)CC[C@H]1c1nn(-c2ncccc2F)cc1-c1ccc(N2CCS(=O)(=O)CC2)cc1` [Example 49, (1R,2R,5S)-N-((S)-1-cyano-2-methylpropyl)-2-(4-(4-(1,1-dioxidothiomorpholino)phen-yl)-1-(3-fluoropyridin-2-yl)-1H-pyrazol-3-yl)-5-fluorocyclohexanecarboxamide] yielded an IC50 of 8.35 nM.
For `CN=S1(=O)CCN(c2ccc(-c3cn(-c4ccc(F)cn4)nc3[C@@H]3CC(F)(F)CC[C@H]3C(=O)NC(C)C#N)cc2)CC1` (single isomer, unassigned) [Example 24, (1R,2R)-N-((R or S)-1-cyanoethyl)-4,4-difIuoro-2-(1-(5-fluoropyridin-2-yl)-4-(4-(1-(methylimino)-1-oxidothiomorpholino)phenyl)-1H-pyrazol-3-yl)cyclohexanecarboxamide], the IC50 was 169 nM.
`CN=S1(=O)CCN(c2ccc(-c3cn(-c4ncccc4F)nc3[C@@H]3CC[C@H](F)C[C@H]3C(=O)NC3(C#N)CC3)cc2)CC1` [Example 53, (1R,2R,5S)-N-(1-cyanocyclopropyl)-5-fluoro-2-(1-(3-fluoropyridin-2-yl)-4-(4-(1-(methylimino)-1-oxidothiomorpholino)phenyl)-1H-pyrazol-3-yl)cyclohexanecarboxamide] gave an IC50 of 6.54 nM.
`CC(C#N)NC(=O)[C@@H]1CCC(F)(F)C[C@H]1c1nn(-c2ccc(F)cn2)cc1-c1ccc(N2CCS(=N)(=O)CC2)cc1` (single isomer, unassigned) [Example 22, (1R,2R)-N-((R or S)-1-cyanoethyl)-4,4-difluoro-2-(1-(5-fluoropyridin-2-yl)-4-(4-(1-imino-1-oxidothiomorpholino)phenyl)-1H-pyrazol-3-yl)cyclohexanecarboxamide] was tested, and the IC50 was 264 nM.
With `N#CC1(NC(=O)[C@@H]2CCC(F)(F)C[C@H]2c2nn(-c3ccc(Cl)cn3)cc2-c2ccc(N3CCS(=O)(=O)CC3)cc2)CC1` [Example 150, (1R,2R)-2-(1-(5-chloropyridin-2-yl)-4-(4-(1,1-dioxidothiomorpholino)phen-yl)-1H-pyrazol-3-yl)-N-(1-cyanocyclopropyl)-4,4-difluorocyclohexanecarbox-amide] the IC50 was 1.43 nM.
`N#CC1(NC(=O)[C@@H]2CCC(F)(F)C[C@H]2c2nn(-c3ncccc3F)cc2-c2ccc(N3CCS(=N)(=O)CC3)cc2)CC1` [Example 39, (1R,2R)-N-(1-cyanocyclopropyl)-4,4-difluoro-2-(1-(3-fluoropyridin-2-yl)-4-(4-(1-imino-1-oxidothiomorpholino)phenyl)-1H-pyrazol-3-yl)cyclohexanecarboxamide] gave an IC50 of 48.7 nM.
`CC1(C)CC[C@@H](c2nn(-c3ccc(F)cc3)cc2-c2ccc(N3CCS(=O)(=O)CC3)cc2)[C@H](C(=O)NC2(C#N)CC2)C1` (single isomer, unassigned) [Example 126, (1R,2R) or (1S,2S)-N-(1-cyanocyclopropyl)-2-(4-(4-(1,1-dioxidothiomorpholino)phen-yl)-1-(4-fluorophenyl)-1H-pyrazol-3-yl)-5,5-dimethylcyclohexanecarbox-amide] was tested, and the IC50 was 116 nM.
Compound `N#CC1(NC(=O)[C@@H]2CCC(F)(F)C[C@H]2c2nn(-c3ccc(F)cn3)cc2-c2ccc(N3CCS(=O)(=O)CC3)cc2)CC1` [Example 151, (1R,2R)-N-(1-cyanocyclopropyl)-2-(4-(4-(1,1-dioxidothiomorpholino)phen-yl)-1-(5-fluoropyridin-2-yl)-1H-pyrazol-3-yl)-4,4-difluorocyclohexanecarbox-amide] has an IC50 of 2.44 nM.
`C[C@@H](C#N)NC(=O)[C@@H]1C[C@@H](F)CC[C@H]1c1nn(-c2ncccc2F)cc1-c1ccc(N2CCS(=O)(=O)CC2)cc1` [Example 12, (1R,2R,5S)—N—((S)-1-Cyanoethyl)-2-(4-(4-(1,1-dioxidothiomorpholino)phenyl)-1-(3-fluoropyridin-2-yl)-1H-pyrazol-3-yl)-5-fluorocyclohexanecarboxamide] gave an IC50 of 6.89 nM.
With `CN=S1(=O)CCN(c2ccc(-c3cn(-c4ncccc4F)nc3[C@@H]3CC(F)(F)CC[C@H]3C(=O)NC3(C#N)CC3)cc2)CC1` [Example 40, (1R,2R)-N-(1-cyanocyclopropyl)-4,4-difluoro-2-(1-(3-fluoropyridin-2-yl)-4-(4-(1-(methylimino)-1-oxidothiomorpholino)phenyl)-1H-pyrazol-3-yl)cyclohexanecarboxamide] the IC50 was 22 nM.
Compound `N#CC1(NC(=O)[C@@H]2C[C@@H](F)CC[C@H]2c2nn(-c3ncccc3F)cc2-c2ccc(N3CCS(=N)(=O)CC3)cc2)CC1` [Example 56, (1R,2R,5S)-N-(1-cyanocyclopropyl)-5-fluoro-2-(1-(3-fluoropyridin-2-yl)-4-(4-(1-imino-1-oxidothiomorpholino)phenyl)-1H-pyrazol-3-yl)cyclohexanecarboxamide] has an IC50 of 5.69 nM.
`N#CC1(NC(=O)[C@@H]2CCC(F)(F)C[C@H]2c2nn(-c3ccc(C(F)(F)F)cn3)cc2-c2ccc(N3CCS(=O)(=O)CC3)cc2)CC1` [Example 149, (1R,2R)-N-(1-cyanocyclopropyl)-2-(4-(4-(1,1-dioxidothiomorpholino)phen-yl)-1-(5-(trifluoromethyl)pyridin-2-yl)-1H-pyrazol-3-yl)-4,4-difluorocyclohexanecarbox-amide] showed an IC50 of 2.58 nM.
In the case of `N#CC1(NC(=O)[C@@H]2CCCC[C@H]2c2nn(-c3ncccn3)cc2-c2ccc(N3CCS(=O)(=O)CC3)cc2)CC1` [Example 160, (1R,2R)-N-(1-cyanocyclopropyl)-2-(4-(4-(1,1-dioxidothiomorpholino)phen-yl)-1-(pyrimidin-2-yl)-1H-pyrazol-3-yl)cyclohexanecarboxamide], the IC50 is reported as 34.7 nM.
`CC(C)[C@@H](C#N)NC(=O)[C@@H]1C[C@@H](F)CC[C@H]1c1nn(-c2ncccc2F)cc1-c1ccc(N2CCS(=N)(=O)CC2)cc1` [Example 58, (1R,2R,5S)-N-((S)-1-cyano-2-methylpropyl)-5-fluoro-2-(1-(3-fluoropyridin-2-yl)-4-(4-(1-imino-1-oxidothiomorpholino)phenyl)-1H-pyrazol-3-yl)cyclohexanecarboxamide] showed an IC50 of 16 nM.
`CN=S1(=O)CCN(c2ccc(-c3cn(-c4ncccc4F)nc3[C@@H]3CC[C@H](F)C[C@H]3C(=O)N[C@H](C#N)C(C)C)cc2)CC1` [Example 55, (1R,2R,5S)-N-((S)-1-cyano-2-methylpropyl)-5-fluoro-2-(1-(3-fluoropyridin-2-yl)-4-(4-(1-(methylimino)-1-oxidothiomorpholino)phenyl)-1H-pyrazol-3-yl)cyclohexanecarboxamide] showed an IC50 of 14.3 nM.
`CN=S1(=O)CCN(c2ccc(-c3cn(-c4ncccc4F)nc3[C@@H]3CC[C@H](F)C[C@H]3C(=O)N[C@@H](C)C#N)cc2)CC1` [Example 54, (1R,2R,5S)-N-((S)-1-cyanoethyl)-5-fluoro-2-(1-(3-fluoropyridin-2-yl)-4-(4-(1-(methylimino)-1-oxidothiomorpholino)phenyl)-1H-pyrazol-3-yl)cyclohexanecarboxamide] gave an IC50 of 7.89 nM.
